Laboratory results published in the kinase profiling compilation of Christmann-Franck et al. (2016).

Key:
[1] = target: CDK9 (human) (UniProt P50750); assay: KINOMEscan competition binding; details: compound 10.0 µM
[2] = target: CSNK1G2 (human) (UniProt P78368); assay: KINOMEscan competition binding; details: compound 10.0 µM
[3] = target: HIPK1 (human) (UniProt Q86Z02); assay: SelectScreen, TR FRET
[4] = target: HIPK2 (human) (UniProt Q9H2X6); assay: SelectScreen, TR FRET
[5] = target: CAMK1G (human) (UniProt Q96NX5); assay: KINOMEscan competition binding; details: compound 10.0 µM
CAMK1G (human), sequence (Q96NX5 whole entry, looked up): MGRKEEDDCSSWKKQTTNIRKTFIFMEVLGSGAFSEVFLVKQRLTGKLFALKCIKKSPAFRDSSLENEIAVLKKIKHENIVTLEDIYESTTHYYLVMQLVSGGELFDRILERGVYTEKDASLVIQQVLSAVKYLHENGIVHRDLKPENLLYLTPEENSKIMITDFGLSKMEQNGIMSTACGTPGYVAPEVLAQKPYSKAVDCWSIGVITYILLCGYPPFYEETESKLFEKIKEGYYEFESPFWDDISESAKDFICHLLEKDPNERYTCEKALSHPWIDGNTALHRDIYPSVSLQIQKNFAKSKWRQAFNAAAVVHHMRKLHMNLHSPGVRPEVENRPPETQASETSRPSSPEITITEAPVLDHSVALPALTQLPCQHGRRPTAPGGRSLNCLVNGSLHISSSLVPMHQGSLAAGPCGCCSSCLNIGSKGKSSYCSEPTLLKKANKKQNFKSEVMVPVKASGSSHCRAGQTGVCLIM

[6] = target: CDK11A (human) (UniProt Q9UQ88); assay: KINOMEscan competition binding; details: compound 10.0 µM
[7] = target: CDK8 (human) (UniProt P49336); assay: KINOMEscan competition binding; details: compound 10.0 µM
[8] = target: PAK6 (human) (UniProt Q9NQU5); assay: KINOMEscan competition binding; details: compound 10.0 µM
[9] = target: PIM1 (human) (UniProt P11309); assay: SelectScreen, TR FRET
PIM1 (human), sequence (P11309 whole entry, looked up): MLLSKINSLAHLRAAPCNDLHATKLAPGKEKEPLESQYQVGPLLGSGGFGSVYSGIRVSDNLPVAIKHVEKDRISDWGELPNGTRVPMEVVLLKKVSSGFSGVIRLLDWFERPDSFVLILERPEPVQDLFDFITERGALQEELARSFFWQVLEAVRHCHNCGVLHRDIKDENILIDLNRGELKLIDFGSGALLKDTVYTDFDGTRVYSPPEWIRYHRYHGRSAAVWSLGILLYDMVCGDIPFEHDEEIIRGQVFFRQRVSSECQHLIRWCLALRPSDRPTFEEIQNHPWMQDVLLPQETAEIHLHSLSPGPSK

[10] = target: PIM2 (human) (UniProt Q9P1W9); assay: SelectScreen, TR FRET
PIM2 (human), sequence (Q9P1W9 whole entry, looked up): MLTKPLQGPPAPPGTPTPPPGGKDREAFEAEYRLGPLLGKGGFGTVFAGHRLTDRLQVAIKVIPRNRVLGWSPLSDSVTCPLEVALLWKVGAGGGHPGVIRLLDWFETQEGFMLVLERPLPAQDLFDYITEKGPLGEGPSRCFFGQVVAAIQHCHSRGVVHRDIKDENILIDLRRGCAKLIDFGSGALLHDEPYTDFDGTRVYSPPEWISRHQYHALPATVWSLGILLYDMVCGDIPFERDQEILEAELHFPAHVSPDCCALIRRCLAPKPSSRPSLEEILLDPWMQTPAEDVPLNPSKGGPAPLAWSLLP

[11] = target: AURKB (human) (UniProt Q96GD4); assay: SelectScreen, TR FRET
[12] = target: AURKC (human) (UniProt Q9UQB9); assay: SelectScreen, TR FRET
[13] = target: BLK (human) (UniProt P51451); assay: KINOMEscan competition binding; details: compound 10.0 µM
BLK (human), sequence (P51451 whole entry, looked up): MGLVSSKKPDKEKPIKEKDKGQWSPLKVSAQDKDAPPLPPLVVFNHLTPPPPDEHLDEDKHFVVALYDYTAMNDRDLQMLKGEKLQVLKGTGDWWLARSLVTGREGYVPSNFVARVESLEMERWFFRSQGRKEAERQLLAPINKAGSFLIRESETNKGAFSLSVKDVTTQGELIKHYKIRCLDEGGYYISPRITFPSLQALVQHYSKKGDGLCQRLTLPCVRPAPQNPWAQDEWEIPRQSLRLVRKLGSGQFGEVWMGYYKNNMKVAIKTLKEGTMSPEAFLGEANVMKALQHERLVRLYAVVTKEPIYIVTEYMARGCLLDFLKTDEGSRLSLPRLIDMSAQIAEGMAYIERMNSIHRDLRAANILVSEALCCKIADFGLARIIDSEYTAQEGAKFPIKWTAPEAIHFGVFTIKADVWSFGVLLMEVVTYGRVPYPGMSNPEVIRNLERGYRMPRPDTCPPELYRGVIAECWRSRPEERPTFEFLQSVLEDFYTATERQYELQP

[14] = target: BRAF (human) (UniProt P15056); assay: KINOMEscan competition binding; details: compound 10.0 µM
[15] = test system: BRAF (human), P15056 [V600E]; assay: KINOMEscan competition binding; details: compound 10.0 µM
[16] = target: CDC42BPG (human) (UniProt Q6DT37); assay: KINOMEscan competition binding; details: compound 10.0 µM
[17] = target: EPHA7 (human) (UniProt Q15375); assay: KINOMEscan competition binding; details: compound 10.0 µM
EPHA7 (human), sequence (Q15375 whole entry, looked up): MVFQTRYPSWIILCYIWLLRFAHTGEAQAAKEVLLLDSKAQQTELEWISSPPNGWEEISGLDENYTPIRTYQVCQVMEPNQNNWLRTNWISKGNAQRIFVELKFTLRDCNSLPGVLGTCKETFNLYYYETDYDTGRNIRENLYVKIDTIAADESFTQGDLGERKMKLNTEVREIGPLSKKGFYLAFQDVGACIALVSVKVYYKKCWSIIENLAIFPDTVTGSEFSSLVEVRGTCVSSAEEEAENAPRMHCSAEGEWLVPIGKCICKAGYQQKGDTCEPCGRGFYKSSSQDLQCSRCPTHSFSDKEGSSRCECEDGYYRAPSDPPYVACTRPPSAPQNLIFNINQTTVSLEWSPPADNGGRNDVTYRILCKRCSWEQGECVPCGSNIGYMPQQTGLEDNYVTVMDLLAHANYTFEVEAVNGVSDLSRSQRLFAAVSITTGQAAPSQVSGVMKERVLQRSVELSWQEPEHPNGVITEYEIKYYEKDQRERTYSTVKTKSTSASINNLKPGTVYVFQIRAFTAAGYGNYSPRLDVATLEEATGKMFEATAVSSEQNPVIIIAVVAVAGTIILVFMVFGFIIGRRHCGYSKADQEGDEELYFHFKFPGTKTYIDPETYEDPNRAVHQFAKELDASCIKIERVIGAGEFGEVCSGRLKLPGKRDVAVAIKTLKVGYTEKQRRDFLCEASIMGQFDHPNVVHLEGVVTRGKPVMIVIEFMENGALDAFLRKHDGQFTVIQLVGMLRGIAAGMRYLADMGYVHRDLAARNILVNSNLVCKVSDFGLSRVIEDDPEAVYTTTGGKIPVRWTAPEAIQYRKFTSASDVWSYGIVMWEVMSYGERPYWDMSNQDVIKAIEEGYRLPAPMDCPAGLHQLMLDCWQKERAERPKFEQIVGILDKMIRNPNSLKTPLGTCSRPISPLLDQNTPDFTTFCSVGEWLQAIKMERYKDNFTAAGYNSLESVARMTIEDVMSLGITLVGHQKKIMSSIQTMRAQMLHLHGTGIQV

[18] = target: MAPK13 (human) (UniProt O15264); assay: KINOMEscan competition binding; details: compound 10.0 µM
[19] = target: MST4 (human) (UniProt Q9P289); assay: KINOMEscan competition binding; details: compound 10.0 µM
MST4 (human), sequence (Q9P289 whole entry, looked up): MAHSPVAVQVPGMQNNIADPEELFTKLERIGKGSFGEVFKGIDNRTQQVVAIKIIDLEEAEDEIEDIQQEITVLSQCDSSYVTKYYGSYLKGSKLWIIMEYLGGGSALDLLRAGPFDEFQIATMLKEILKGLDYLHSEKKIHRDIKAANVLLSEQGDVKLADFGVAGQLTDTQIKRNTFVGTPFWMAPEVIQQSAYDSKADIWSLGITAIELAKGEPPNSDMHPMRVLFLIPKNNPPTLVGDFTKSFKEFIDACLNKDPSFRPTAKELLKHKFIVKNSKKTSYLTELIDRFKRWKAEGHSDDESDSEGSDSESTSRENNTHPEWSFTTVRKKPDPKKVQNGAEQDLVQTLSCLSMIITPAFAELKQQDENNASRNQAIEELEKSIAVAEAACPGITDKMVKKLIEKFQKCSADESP

[20] = target: PRKG2 (human) (UniProt Q13237); assay: KINOMEscan competition binding; details: compound 10.0 µM
[21] = target: RPS6KA3 KD1 (human) (UniProt P51812); assay: KINOMEscan competition binding; details: compound 10.0 µM
RPS6KA3 KD1 (human), sequence (P51812 whole entry, looked up): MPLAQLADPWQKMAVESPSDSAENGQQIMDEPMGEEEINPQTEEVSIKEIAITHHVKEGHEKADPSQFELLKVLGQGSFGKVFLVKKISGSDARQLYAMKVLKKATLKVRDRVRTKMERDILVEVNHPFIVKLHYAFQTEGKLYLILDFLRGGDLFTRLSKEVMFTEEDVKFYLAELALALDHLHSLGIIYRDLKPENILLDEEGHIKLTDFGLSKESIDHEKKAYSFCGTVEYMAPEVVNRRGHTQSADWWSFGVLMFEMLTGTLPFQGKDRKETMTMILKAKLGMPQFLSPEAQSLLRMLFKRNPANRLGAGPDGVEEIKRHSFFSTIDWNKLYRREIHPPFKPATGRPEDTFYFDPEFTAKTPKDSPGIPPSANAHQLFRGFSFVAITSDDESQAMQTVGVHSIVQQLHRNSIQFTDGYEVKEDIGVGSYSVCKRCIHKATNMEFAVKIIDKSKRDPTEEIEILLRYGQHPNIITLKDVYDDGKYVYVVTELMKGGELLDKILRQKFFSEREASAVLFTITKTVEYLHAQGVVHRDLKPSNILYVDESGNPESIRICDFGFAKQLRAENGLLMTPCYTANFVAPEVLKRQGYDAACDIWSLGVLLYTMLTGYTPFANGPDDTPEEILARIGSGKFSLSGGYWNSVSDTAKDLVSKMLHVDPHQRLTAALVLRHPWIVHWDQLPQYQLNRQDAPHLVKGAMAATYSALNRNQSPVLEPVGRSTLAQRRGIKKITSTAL

[22] = target: SRC (human) (UniProt P12931); assay: KINOMEscan competition binding; details: compound 10.0 µM
SRC (human), sequence (P12931 whole entry, looked up): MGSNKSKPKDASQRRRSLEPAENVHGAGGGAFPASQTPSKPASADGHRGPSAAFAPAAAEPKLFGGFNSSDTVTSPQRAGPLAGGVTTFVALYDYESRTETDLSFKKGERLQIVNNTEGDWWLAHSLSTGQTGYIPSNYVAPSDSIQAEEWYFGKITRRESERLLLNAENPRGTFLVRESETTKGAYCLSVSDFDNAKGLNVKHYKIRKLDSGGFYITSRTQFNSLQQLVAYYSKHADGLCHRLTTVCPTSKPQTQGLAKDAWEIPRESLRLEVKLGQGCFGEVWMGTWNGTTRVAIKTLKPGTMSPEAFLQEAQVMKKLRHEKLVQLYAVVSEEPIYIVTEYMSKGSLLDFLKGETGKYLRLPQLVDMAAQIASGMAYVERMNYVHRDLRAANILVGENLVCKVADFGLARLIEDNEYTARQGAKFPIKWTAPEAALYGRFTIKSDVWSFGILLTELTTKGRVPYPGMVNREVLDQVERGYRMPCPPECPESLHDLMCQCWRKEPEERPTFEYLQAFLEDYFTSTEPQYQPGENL

[23] = target: DYRK1A (human) (UniProt Q13627); assay: KINOMEscan competition binding
[24] = target: DYRK2 (human) (UniProt Q92630); assay: KINOMEscan competition binding
[25] = target: HIPK2 (human) (UniProt Q9H2X6); assay: KINOMEscan competition binding

CSNK1G2 (human), sequence (P78368 whole entry, looked up): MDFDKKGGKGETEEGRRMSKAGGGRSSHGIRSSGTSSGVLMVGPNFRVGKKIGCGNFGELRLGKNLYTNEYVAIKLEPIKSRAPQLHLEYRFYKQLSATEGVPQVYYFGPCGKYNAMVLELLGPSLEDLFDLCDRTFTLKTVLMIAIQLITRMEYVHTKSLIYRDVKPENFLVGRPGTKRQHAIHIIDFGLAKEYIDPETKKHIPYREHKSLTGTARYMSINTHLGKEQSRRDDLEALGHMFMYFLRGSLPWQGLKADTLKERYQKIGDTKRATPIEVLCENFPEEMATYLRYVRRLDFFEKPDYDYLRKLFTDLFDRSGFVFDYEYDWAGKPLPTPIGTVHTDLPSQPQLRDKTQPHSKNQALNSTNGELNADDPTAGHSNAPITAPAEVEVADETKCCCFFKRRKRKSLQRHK

| kinase still bound, per cent of control [1] | kinase still bound, per cent of control [2] | kinase still bound, per cent of control [5] | kinase still bound, per cent of control [6] | kinase still bound, per cent of control [7] | kinase still bound, per cent of control [8] | kinase still bound, per cent of control [13] | kinase still bound, per cent of control [16] | kinase still bound, per cent of control [17] | kinase still bound, per cent of control [18] | kinase still bound, per cent of control [19] | kinase still bound, per cent of control [20] | kinase still bound, per cent of control [21] | kinase still bound, per cent of control [22] | SMILES | further results |
| --- | --- | --- | --- | --- | --- | --- | --- | --- | --- | --- | --- | --- | --- | --- | --- |
| 25% | 19% |  |  |  |  |  |  |  |  |  |  |  |  | Nc1cccc(-c2cc(/C=C3\SC(=O)NC3=O)c[nH]c2=O)c1 | IC50 [3]: 244 nM; IC50 [4]: 166 nM |
|  |  | 34% | 2% | 10% | 29% |  |  |  |  |  |  |  |  | O=C1NC(=S)S/C1=C\c1ccc(-c2cncc3ccccc23)o1 | IC50 [9]: 284 nM; IC50 [10]: 92 nM |
|  |  | 18% | 0.45% | 11% | 14% |  |  |  |  |  |  |  |  | N=C1NC(=O)/C(=C/c2ccc(-c3cncc4ccccc34)o2)S1 | IC50 [11]: 29 nM; IC50 [12]: 154 nM |
| 100% | 100% | 100% | 99% | 100% | 100% | 100% | 100% | 100% | 90% | 100% | 100% | 100% | 100% | CN1C(=O)c2ccccc2N(C)c2nc(NS(=O)(=O)c3ccc(N)cc3)ncc21 |  |
|  | 14% |  |  |  |  |  |  |  |  |  |  |  |  | CS(=O)(=O)Nc1ccc(-c2ncc(/C=C3\SC(=N)NC3=O)s2)cc1 |  |
|  |  |  |  |  |  |  |  |  |  | 32% |  |  |  | N=C1NC(=O)/C(=C/c2ccc(-c3ccc(F)cc3O)o2)S1 | IC50 [9]: 110 nM; IC50 [10]: 96 nM |
|  | 0.75% |  |  |  |  |  |  |  |  |  |  |  |  | CS(=O)(=O)Nc1ccc(-c2cncc(/C=C3\SC(=N)NC3=O)c2)cc1 | kinase still bound, per cent of control [14]: 32%; kinase still bound, per cent of control [15]: 34% |

More lines, now with the values behind:

| SMILES | kinase still bound, per cent of control [1] | kinase still bound, per cent of control [2] | kinase still bound, per cent of control [5] | kinase still bound, per cent of control [6] | kinase still bound, per cent of control [7] | kinase still bound, per cent of control [8] | kinase still bound, per cent of control [13] | kinase still bound, per cent of control [16] | kinase still bound, per cent of control [17] | kinase still bound, per cent of control [18] | kinase still bound, per cent of control [19] | kinase still bound, per cent of control [20] | kinase still bound, per cent of control [21] | kinase still bound, per cent of control [22] | further results |
| --- | --- | --- | --- | --- | --- | --- | --- | --- | --- | --- | --- | --- | --- | --- | --- |
| CN1C(=O)c2ccccc2N(C)c2nc(Nc3ccc(N4CCC(O)CC4)cc3)ncc21 | 100% | 80% | 91% | 100% | 100% | 100% | 12% | 100% | 100% | 100% | 27% | 95% | 85% | 21% | kinase still bound, per cent of control [14]: 94%; kinase still bound, per cent of control [15]: 100% |
| COc1cc(N2CCN(C)CC2)ccc1Nc1ncc2c(n1)N(C)c1sccc1C(=O)N2C | 76% | 87% | 68% | 95% | 100% | 74% | 100% | 91% | 92% | 71% | 70% | 84% | 99% | 97% |  |
| CS(=O)(=O)Nc1ccc(-c2cc(/C=C3\SC(=N)NC3=O)c[nH]c2=O)cc1 |  |  |  |  |  |  |  |  |  |  |  |  |  |  | IC50 [3]: 1160 nM; IC50 [4]: 300 nM |
| COc1cc(N2CCC(O)CC2)ccc1Nc1ncc2c(n1)N1CCc3cccc(c31)C(=O)N2C | 100% | 100% | 57% | 100% | 100% | 92% | 100% | 100% | 92% | 87% | 99% | 96% | 55% | 100% |  |
| COc1cc(N2CCN(C)CC2)ccc1Nc1ncc2c(n1)N(C)c1ccccc1N(C)C2=O | 100% | 100% | 100% | 80% | 88% | 100% | 93% | 100% | 100% | 100% | 91% | 99% | 92% | 88% |  |
| O=C1NC(=O)/C(=C/c2c[nH]c(=O)c(-c3ccc(N4CCNCC4)nc3)c2)S1 | 100% | 3.6% | 85% | 63% | 44% | 17% | 100% | 88% | 97% | 100% | 80% | 100% | 42% | 100% | Kd [23]: 8.8 nM; Kd [24]: 250 nM; Kd [25]: 9.5 nM; IC50 [3]: 136 nM; IC50 [4]: 74 nM |
| N=C1NC(=O)/C(=C/c2ccc(-c3csc4ccccc34)o2)S1 |  |  |  |  |  |  |  |  |  |  |  |  |  |  | IC50 [9]: 3270 nM; IC50 [10]: 628 nM |
| N=C1NC(=O)/C(=C/c2c[nH]c(=O)c(-c3ccc(N4CCNCC4)nc3)c2)S1 |  |  |  |  |  |  |  |  |  |  |  |  |  |  | IC50 [3]: 507 nM; IC50 [4]: 289 nM |
| COc1cc(N2CCN(C)CC2)ccc1Nc1ncc2c(n1)Nc1ccccc1NC2=O | 100% | 92% | 100% | 82% | 55% | 100% | 49% | 100% | 100% | 100% | 67% | 100% | 72% | 48% |  |
| CSC1=NC(=O)/C(=C/c2c[nH]c(=O)c(-c3ccc(NS(C)(=O)=O)cc3)c2)S1 |  |  |  |  |  |  |  |  |  |  |  |  |  |  | IC50 [3]: 1960 nM; IC50 [4]: 618 nM |
| N=C1NC(=O)/C(=C/c2ccc(-c3ccccc3O)o2)S1 |  |  |  |  |  |  |  |  |  |  |  |  |  |  | IC50 [9]: 94 nM; IC50 [10]: 114 nM |
| CN1CCN(c2ccc(C(=O)Nc3ncc4c(n3)N(C)c3ccccc3C(=O)N4C)cc2)CC1 | 100% | 100% | 100% | 100% | 100% | 100% | 100% | 100% | 100% | 90% | 100% | 90% | 100% | 100% |  |
| N=C1NC(=O)/C(=C/c2ccc(-c3ccc(C(N)=O)cc3O)o2)S1 |  |  |  |  |  |  |  |  |  |  |  |  |  |  | IC50 [9]: 32 nM; IC50 [10]: 57 nM |
